Test results reported in US9694072B2, “Methods for diagnosing and treating neuroendocrine cancer” (Trustees of Dartmouth College, priority 2005, dated 2017).
Where two headings read alike, the source gives them in different places.

Experiments:
[1] = system: NCI-H345 classical SCLC cells; assay: Cell growth/viability assay (Alamar Blue)
Procedure: Cultures of NCI-H345, NCI-H146, DMS-53 cells (classical cell lines), and NCI-H82 cells (variant cell line) were treated with 0.05% trypsin, washed in phosphate buffered saline (PBS)/glycine and plated onto 96-well plates at 10^4 cells/well in medium for 24 hours to provide time for rectifying possible damage to membrane proteins from the trypsinization. The wells were washed and incubated with PBS/glycine containing albumin (1.25 mg/mL) in the presence or absence of different concentrations (25 μM-800 μM) of either the NMDAR 1 antagonists, Memantine or MK-801; or the NMDAR2B antagonists Ifenprodil and Ro 25-6981 (binders to the polyamine site), or the NMDAR2B antagonists L-701,252 and L-701,324 (binders to the glycine site), or vehicle; and Alamar Blue (1:10 dilution following manufacturer's recommendation). Fluorescent readings were taken at periods representing 24, 48, and 72 hours of incubation with antagonist using a Synergy HT Multi-Detection Microplate Reader and excitation/emission wavelengths of 530 nm and 590 nm. Cell viability was evaluated as % vehicle control at the corresponding incubation time.
This peptide domain is represented in that portion of the mRNA message sequenced by RT-PCR. For studies on cell proliferation, the IgGs of this antiserum were first isolated by precipitation with 50% saturated ammonium sulfate, and antibodies purified from these immunoglobulins by affinity chromatography using a column containing the peptide component of the above antigen coupled to SEPHAROSE (Friedmann, et al. (1994) supra; Keegan, et al. (2002) supra).

[2] = system: NCI-H82 variant SCLC cells; assay: Cell growth/viability assay (Alamar Blue); format: cell-based, human; settings: for IC50: read-out: IC50, cell viability; for Cell viability reduced to: NCI-H82, 24, 48, and 72 hours incubation
Procedure: (§3) Cultures of NCI-H345, NCI-H146, DMS-53 cells (classical cell lines), and NCI-H82 cells (variant cell line) were treated with 0.05% trypsin, washed in phosphate buffered saline (PBS)/glycine and plated onto 96-well plates at 10^4 cells/well in medium for 24 hours to provide time for rectifying possible damage to membrane proteins from the trypsinization. […] Fluorescent readings were taken at periods representing 24, 48, and 72 hours of incubation with antagonist using a Synergy HT Multi-Detection Microplate Reader and excitation/emission wavelengths of 530 nm and 590 nm. Cell viability was evaluated as % vehicle control at the corresponding incubation time.

DMS-53 cells = assay: Cell growth/viability assay (Alamar Blue); format: cell-based, human; settings: for effect on cell viability (in words): DMS-53, 48 hours, concentration range used
Procedure: as §3

[3] = system: NCI H82 variant small-cell cancer cell xenografts; assay: NCI H82 xenografts treated with ifenprodil; format: in vivo, nu/nu mice
Procedure: Male nu/nu mice were injected subcutaneously with NCI H82 variant small-cell cancer cells (˜10^7 cells/mouse) representing recurrent disease, and tumors became obvious after 2-3 weeks, and commenced growing rapidly. Animals were divided into two groups.
In another set of experiments, NCI H82 tumors were pretreated with cyclophosphamide for three days (single dose of 75 mg/kg body weight) before a single daily dose of i.p. ifenprodil (2.5 mg/kg) commenced.

[4] = system: human LA-N-2 neuroblastoma cells; settings: cited from earlier work
[5] = system: human LA-N2 neuroblastoma cells; settings: in the presence of glycine; cited from earlier work
NCI-H146 cells = assay: Cell growth/viability assay (Alamar Blue); format: cell-based, human
Procedure: as §3

LAN2 neuroblastoma cells = assay: Alamar Blue growth study; format: cell-based, human; settings: LAN2, in the presence of glycine over 24 hours
Procedure: (§1) Results represent triplicate studies performed with Alamar Blue on LAN2 neuroblastoma, MCF-7 breast cancer, and SKBr3 breast cancer cells examining the growth influence of 1 mM glutamate in the presence of glycine over 24 hours.
(§2) Results represent triplicate studies performed with Alamar Blue on LAN2 neuroblastoma, MCF-7 breast cancer, and SKBr3 breast cancer cells examining the growth influence of 100 mM Mg^++ in the presence of glycine over 24 hours.

[6] = system: MCF-7 breast cancer cells; assay: Alamar Blue growth/proliferation study; format: cell-based, human; settings: for effect on cell growth/proliferation (in words): MCF-7, in the presence of glycine over 24 hours
[7] = system: SKBr3 breast cancer cells; assay: Alamar Blue growth/proliferation study; format: cell-based, human; settings: for effect on cell growth/proliferation (in words): SKBr3, in the presence of glycine over 24 hours
Procedure: as §1, §2

[8] = Homo sapiens, NCI-H345, 48 h, read-out: IC50, cell viability
[9] = Homo sapiens, NCI-H345, read-out: IC50, cell viability
[10] = Homo sapiens, NCI-H82, 48 and 72 hours of incubation, Alamar Blue (figure legend)
[11] = Homo sapiens, NCI-H82, at 48 hours
[12] = 2.5 mg/kg once daily intraperitoneally

For `CC(C(O)c1ccc(O)cc1)N1CCC(Cc2ccccc2)CC1` (centres unmarked) [Ifenprodil], the “Cell viability reduced to” value [1] was “about 10 % of control”, the IC50 [1, 8] was roughly 150 µM and the IC50 [1, 9] was 150 to 200 µM. For the same molecule, the IC50 [2, 10] was 150 to 200 µM, the IC50 [2, 11] was roughly 150 µM and the “Cell viability reduced to” value [2] was “about 10 % of control”. For the same molecule, the “effect on cell viability (in words)” value (DMS-53 cells) was “smaller decreases”, the “time tumors maintained sizes of less than their original size” value [3, 12] was roughly 10 days and the “tumor size by 2 weeks of treatment” value [3, 12] was less than 2 times their original size. The “tumors first shrank to” value [3, 12] was ~80 % of their original size, the “tumor growth vs saline-treated control mice (in words)” value ([3]; ifenprodil alone) was “inhibits the growth” and the “body weight compared to saline-treated animals” value ([3]; over 8 days of drug treatment) was “no change in body weight”.

For `O=c1[nH]c2cc(Cl)ccc2c(O)c1-c1cccc(Oc2ccccc2)c1` [L-701,324], the “increase in cell viability to” value ([1]; NCI-H345, at 48 hours) was “approximately 140 % of control” and the “increase in cell viability to” value ([2]; NCI-H82, at 48 hours) was “approximately 120 % of control”.

For `NC(=O)c1ccccc1C(=O)N[C@@H](CCC(=O)O)C(=O)O` [NPG, N-phthalamoyl-L-glutamic acid], the Cell cytotoxicity increased ([4]; incubation at 0.1 mM) is listed as 28%, the Cell cytotoxicity increased ([4]; incubation at 1 mM) is listed as 46% and the “inward sodium current increased” value [5] is listed as 1.5 ×.

With `CC(C(O)c1ccc(O)cc1)N1CCC(Cc2ccccc2)CC1` (centres unmarked) [Ro 25-6981] the IC50 ([1]; read-out: IC50, cell viability, NCI-H345, at 48 hours) was roughly 200 µM, the IC50 ([2]; NCI-H82, at 48 hours) was roughly 200 µM and the “effect on cell viability (in words)” value (NCI-H146 cells; NCI-H146, 48 hours, concentration range used) was “no clear effects”. For the same molecule, the “effect on cell viability (in words)” value (DMS-53 cells; listed as Ro 25-698) was “no clear effects”.

In the case of `N[C@@H](CCC(=O)O)C(=O)O` [glutamate, L-glutamic acid], the “effect on cell growth/proliferation (in words)” value (LAN2 neuroblastoma cells) is reported as “decreased cell growth”, the “effect on cell growth/proliferation (in words)” value [6] is reported as “increased proliferation” and the “effect on cell growth/proliferation (in words)” value [7] is reported as “increased proliferation”. For the same molecule, the Cell cytotoxicity increased ([4]; incubation at 1 mM) was 27%, the Cell cytotoxicity increased ([4]; incubation at 10 mM) was 37% and the “inward sodium current increased” value [5] was 1.5 ×.

In the case of `[Mg+2]` [magnesium], the “effect on cell growth/proliferation (in words)” value (LAN2 neuroblastoma cells) is reported as “significantly inhibited proliferation”, the “effect on cell growth/proliferation (in words)” value [6] is reported as “significantly inhibited proliferation” and the “effect on cell growth/proliferation (in words)” value [7] is reported as “significantly inhibited proliferation”.

In the case of `CC12CC3CC(C)(C1)CC(N)(C3)C2` [memantine], the “Proliferation of MCF-7 Cells Percent Fluorescence Compared to Control” value ([6]; 100 μM, 24 Hours) is reported as 92.86 ± 6.08%, the “Proliferation of MCF-7 Cells Percent Fluorescence Compared to Control” value ([6]; 100 μM, 48 Hours) is reported as 89.98 ± 5.30% and the “Proliferation of MCF-7 Cells Percent Fluorescence Compared to Control” value ([6]; 100 μM, 72 Hours) is reported as 88.48 ± 4.02%. For the same molecule, the “Proliferation of MCF-7 Cells Percent Fluorescence Compared to Control” value ([6]; 200 μM, 24 Hours) was 73.51 ± 5.64%, the “Proliferation of MCF-7 Cells Percent Fluorescence Compared to Control” value ([6]; 200 μM, 48 Hours) was 49.78 ± 6.85% and the “Proliferation of MCF-7 Cells Percent Fluorescence Compared to Control” value ([6]; 200 μM, 72 Hours) was 46.62 ± 7.04%. The “Proliferation of MCF-7 Cells Percent Fluorescence Compared to Control” value ([6]; 300 μM, 24 Hours) was 48.81 ± 5.18%, the “Proliferation of MCF-7 Cells Percent Fluorescence Compared to Control” value ([6]; 300 μM, 48 Hours) was 22.33 ± 5.21% and the “Proliferation of MCF-7 Cells Percent Fluorescence Compared to Control” value ([6]; 300 μM, 72 Hours) was 20.02 ± 4.97%. The “Proliferation of MCF-7 Cells Percent Fluorescence Compared to Control” value ([6]; 400 μM, 24 Hours) was 39.62 ± 5.21%, the “Proliferation of MCF-7 Cells Percent Fluorescence Compared to Control” value ([6]; 400 μM, 48 Hours) was 15.79 ± 4.79% and the “Proliferation of MCF-7 Cells Percent Fluorescence Compared to Control” value ([6]; 400 μM, 72 Hours) was 14.38 ± 3.92%. For the same molecule, the “Proliferation of MCF-7 Cells Percent Fluorescence Compared to Control” value ([6]; 500 μM, 24 Hours) was 38.40 ± 2.98%, the “Proliferation of MCF-7 Cells Percent Fluorescence Compared to Control” value ([6]; 500 μM, 48 Hours) was 14.60 ± 3.21% and the “Proliferation of MCF-7 Cells Percent Fluorescence Compared to Control” value ([6]; 500 μM, 72 Hours) was 13.40 ± 3.29%. For the same molecule, the “Proliferation of MCF-7 Cells Percent Fluorescence Compared to Control” value ([6]; 600 μM, 24 Hours) was 39.22 ± 4.13%, the “Proliferation of MCF-7 Cells Percent Fluorescence Compared to Control” value ([6]; 600 μM, 48 Hours) was 15.10 ± 7.28% and the “Proliferation of MCF-7 Cells Percent Fluorescence Compared to Control” value ([6]; 600 μM, 72 Hours) was 13.66 ± 6.62%. For the same molecule, the “Proliferation of MCF-7 Cells Percent Fluorescence Compared to Control” value ([6]; 700 μM, 24 Hours) was 32.80 ± 2.19%, the “Proliferation of MCF-7 Cells Percent Fluorescence Compared to Control” value ([6]; 700 μM, 48 Hours) was 12.51 ± 2.35% and the “Proliferation of MCF-7 Cells Percent Fluorescence Compared to Control” value ([6]; 700 μM, 72 Hours) was 11.89 ± 2.62%. The “Proliferation of MCF-7 Cells Percent Fluorescence Compared to Control” value ([6]; 800 μM, 24 Hours) was 32.82 ± 2.44%, the “Proliferation of MCF-7 Cells Percent Fluorescence Compared to Control” value ([6]; 800 μM, 48 Hours) was 12.34 ± 2.01% and the “Proliferation of MCF-7 Cells Percent Fluorescence Compared to Control” value ([6]; 800 μM, 72 Hours) was 11.82 ± 2.25%. For the same molecule, the “Proliferation of MCF-7 Cells Percent Fluorescence Compared to Control” value ([6]; 900 μM, 24 Hours) was 32.23 ± 2.13%, the “Proliferation of MCF-7 Cells Percent Fluorescence Compared to Control” value ([6]; 900 μM, 48 Hours) was 12.03 ± 2.15% and the “Proliferation of MCF-7 Cells Percent Fluorescence Compared to Control” value ([6]; 900 μM, 72 Hours) was 11.57 ± 2.41%. For the same molecule, the “reduce proliferation by” value ([6]; MCF-7, 0.3 mM, 48 and 72 hours) was “about 80%”, the “effect on proliferation (in words)” value ([6]; MCF-7, NMDAR1 antagonist treatment) was “decreased the proliferation” and the “effect on proliferation (in words)” value ([7]; SKBr3, NMDAR1 antagonist treatment) was “decreased the proliferation”. For the same molecule, the “Cell viability reduced to” value [1] was “about 10 % of control”, the IC50 [1, 8] was 80 to 130 µM and the IC50 [1, 9] was 80 to 100 µM. For the same molecule, the IC50 [2, 10] was 80 to 100 µM, the IC50 [2, 11] was 80 to 130 µM and the “Cell viability reduced to” value [2] was “about 10 % of control”. It also gave an IC50 (NCI-H146 cells; Homo sapiens, NCI-H146, at 48 hours, read-out: IC50, cell viability) of 400 µM and an IC50 (DMS-53 cells; Homo sapiens, DMS-53, at 48 hours, read-out: IC50, cell viability) of 800 µM.
